One assay has as its target BRD4 (Homo sapiens (Human), UniProt O60885). As to the kind of experiment: In vitro enzyme inhibition assay - BRD4 inhibition. The format is binding. Conditions: BRD4 BD1, Table 30.
Another assay addresses CBP (Homo sapiens (Human), UniProt Q92793). Kind of assay: In vitro CBP inhibition (AlphaScreen, biotinylated H4-tetraacetyl peptide). Format: binding. In short, it runs like this:
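His-tagged CBP expressed in E. coli (50 nM final) incubated with biotinylated H4K5/8/12/16(Ac) peptide (20 nM final) in 50 mM HEPES pH 7.3, 10 mM NaCl, 0.25 mM TCEP, 0.1% BSA, 0.005% Brij-35, 0.4% DMSO, 20 min at room temp.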
A general note: Alpha assays give light when donor and acceptor beads are brought close together.

The mark [1] stands for this setting: AlphaScreen, Table 29, read-out: CBP IC50.
Where [2] appears, read: Table 30, read-out: CRREBBP IC50.

Like-named read-outs stand apart in the source and are kept apart here.

CBP, sequence (Q92793 1081-1197): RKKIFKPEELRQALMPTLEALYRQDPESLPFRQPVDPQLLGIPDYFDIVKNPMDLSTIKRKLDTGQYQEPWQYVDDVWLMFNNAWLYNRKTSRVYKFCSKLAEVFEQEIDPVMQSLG

One may read the IC50 as the point on the concentration scale where inhibition reaches its midpoint. `Cn1cc(-c2cnn(Cc3ccccc3)c2)c(-c2ccon2)cc1=O` [Example 121, 5-(1-benzyl-1H-pyrazol-4-yl)-4-(isoxazol-3-yl)-1-methyl-pyridin-2(1H)-one]: the results for the IC50 on BRD4, on CBP (setting [1]) and on CBP (setting [2]) were more than 5000 nM, less than 500 nM and less than 500 nM, respectively. Turning to `Cc1cc(-c2nc(NS(C)(=O)=O)ncc2Oc2ccc(F)cc2F)cn(C)c1=O` [N-(5-(2,4-difluorophenoxy)-4-(1,5-dimethyl-6-oxo-1,6-dihydropyridin-3-yl)pyrimidin-2-yl) methanesulfonamide], the values for the 50% inhibitory concentration (IC50) on BRD4 and at CBP (setting [2]) were less than 500 nM and more than 5000 nM, respectively. `Cn1cc(-c2cnn(-c3ccccc3S(C)(=O)=O)c2)c(-c2ccc(Cl)cc2)cc1=O` [Example 286, 4-(4-Chloro-phenyl)-5-[1-(2-methanesulfonyl-phenyl)-1H-pyrazol-4-yl]-1-methyl-1H-pyridin-2-one]: the figures for the IC50 at BRD4, on CBP (setting [1]) and at CBP (setting [2]) were more than 5000 nM, less than 500 nM and less than 500 nM, respectively. For the molecule `Cn1cc(-c2cnn(Cc3ccccc3)c2)c(-n2ccnc2)cc1=O` [Example 94, 5-(1-benzyl-1H-pyrazol-4-yl)-4-(1H-imidazol-1-yl)-1-methyl-pyridin-2(1H)-one], the IC50 is more than 5000 nM at BRD4, less than 500 nM at CBP (setting [1]) and less than 500 nM at CBP (setting [2]). In the case of `Cn1cc(-c2cnn(-c3ccccc3C(=O)O)c2)c(-c2ccccc2)cc1=O` [Example 223, 2-[4-(1-Methyl-6-oxo-4-phenyl-1,6-dihydro-pyridin-3-yl)-pyrazol-1-yl]-benzoic acid], the concentration for half-maximal inhibition (IC50) was more than 5000 nM on BRD4, less than 500 nM on CBP (setting [1]) and less than 500 nM on CBP (setting [2]).

Consider `Cn1cc(-c2cnn(CS(C)(=O)=O)c2)c(-c2ccccc2)cc1=O` [Example 129, 1-methyl-5-(1-((methyl-sulfonyl)-methyl)-1H-pyrazol-4-yl)-4-phenylpyridin-2(1H)-one], for which the figures for the IC50 against BRD4, on CBP (setting [1]) and at CBP (setting [2]) were more than 5000 nM, less than 500 nM and less than 500 nM, respectively. On BRD4, `Cc1cc(-c2cnn(C(c3ccccc3)C3CC3)c2)cn(C)c1=O` (centres unmarked) [Example 18, 5-(1-(cyclopropyl (phenyl)methyl)-1H-pyrazol-4-yl)-1,3-dimethyl-pyridin-2(1H)-one] had an IC50 of 500 to 5000 nM. For the molecule `Cc1cc(-c2cc(=O)n(C)cc2-c2cnn(Cc3ccccc3)c2)[nH]n1` [Example 115, 5-(1-benzyl-1H-pyrazol-4-yl)-1-methyl-4-(3-methyl-1H-pyrazol-5-yl) pyridin-2(1H)-one], the IC50 at BRD4 was more than 5000 nM; on CBP (setting [1]), less than 500 nM; at CBP (setting [2]), less than 500 nM.

Turning to `Cn1cc(-c2cnn(Cc3ccccc3)c2)c(N2CC[C@@H](C(=O)O)C2)cc1=O` [Example 74, (R)-1-(5-(1-benzyl-1H-pyrazol-4-yl)-1-methyl-2-oxo-1,2-dihydro-pyridin-4-yl)pyrrolidine-3-carboxylic acid], the IC50 is more than 5000 nM against BRD4, less than 500 nM at CBP (setting [1]) and less than 500 nM at CBP (setting [2]). With `Cn1cc(-c2cnn(-c3cccc(F)c3C#N)c2)c(-c2ccc(Cl)cc2)cc1=O` [Example 275, 2-{4-[4-(4-Chloro-phenyl)-1-methyl-6-oxo-1,6-dihydro-pyridin-3-yl]-pyrazol-1-yl}-6-fluoro-benzonitrile], the IC50 at CBP (setting [1]) was less than 500 nM.

In the case of `CCOc1cc(=O)n(C)cc1-c1cnn(CC2CC2(F)F)c1` (centres unmarked) [Example 171, 5-[1-(2,2-Difluoro-cyclopropylmethyl)-1H-pyrazol-4-yl]-4-ethoxy-1-methyl-1H-pyridin-2-one], the IC50 at CBP (setting [1]) is less than 500 nM. As for `Cn1cc(-c2cnn(Cc3ccccc3)c2)c(-c2cccs2)cc1=O` [Example 116, 5-(1-benzyl-1H-pyrazol-4-yl)-1-methyl-4-(thiophen-2-yl) pyridin-2(1H)-one], on CBP (setting [1]), the IC50 is less than 500 nM.

Consider `CCOc1cc(=O)n(C)cc1-c1cnn2c1CN(S(C)(=O)=O)CC2` [Example 392, 4-Ethoxy-5-(5-methanesulfonyl-4,5,6,7-tetrahydro-pyrazolo[1,5-a]pyrazin-3-yl)-1-methyl-1H-pyridin-2-one], for which the IC50 on CBP (setting [1]) is less than 500 nM. In the case of `CCOc1ccc(-c2cc(=O)n(C)cc2-c2cnn(-c3ccccc3C#N)c2)cn1` [Example 234, 2-[4-(6-Ethoxy-1′-methyl-6′-oxo-1′,6′-dihydro-[3,4′]bipyridinyl-3′-yl)-pyrazol-1-yl]-benzonitrile], the half-inhibitory concentration (IC50) at CBP (setting [1]) is less than 500 nM. Same read-out and setting: the result for `Cc1c(-c2cn(C)c(=O)cc2-c2ccccc2)cnn1C` [Example 164, 5-(1,5-dimethyl-1H-pyrazol-4-yl)-1-methyl-4-phenylpyridin-2(1H)-one] reads 500 to 5000 nM; that for `COc1cc(-c2cnn(C(C)c3ccccc3)c2)cn(C)c1=O` (centres unmarked) [Example 32, 3-methoxy-1-methyl-5-(1-(1-phenylethyl)-1H-pyrazol-4-yl) pyridin-2(1H)-one], 500 to 5000 nM. For `C[C@@H](c1ccccc1)n1cc(-c2cn(C)c(=O)cc2N2CCCC2)cn1` [Example 47, (S)-1-methyl-5-(1-(1-phenylethyl)-1H-pyrazol-4-yl)-4-(pyrrolidin-1-yl)pyridin-2(1H)-one], the IC50 at CBP (setting [1]) was less than 500 nM.

Turning to `CC(C)NC(=O)c1ccn(-c2cc(=O)n(C)cc2-c2cnn(Cc3ccccc3)c2)c1` [Example 82, 1-(5-(1-benzyl-1H-pyrazol-4-yl)-1-methyl-2-oxo-1,2-dihydropyridin-4-yl)-N-isopropyl-1H-pyrrole-3-carboxamide], at CBP (setting [1]), the IC50 was less than 500 nM. On the same count and under the same terms, the result for `CCOc1cc(=O)n(C)cc1-c1cnn2c1CN(C(C)=O)CC2` [Example 393, 5-(5-Acetyl-4,5,6,7-tetrahydro-pyrazolo[1,5-a]pyrazin-3-yl)-4-ethoxy-1-methyl-1H-pyridin-2-one] reads 500 to 5000 nM; that for `Cn1cc(-c2cnn(CC3CC3)c2)c(-n2ccc(C(=O)O)c2)cc1=O` [Example 86, 1-(5-(1-(cyclopropylmethyl)-1H-pyrazol-4-yl)-1-methyl-2-oxo-1,2-dihydropyridin-4-yl)-1H-pyrrolc-3-carboxylic acid], less than 500 nM. The same measure, in the same setting: the result for `COc1ccc(-c2cc(=O)n(C)cc2-c2cnn(-c3cccc(C4CC4)c3C#N)c2)cn1` [Example 383, 2-cyclopropyl-6-(4-(6-methoxy-1′-methyl-6′-oxo-1′,6′-dihydro-[3,4′-bipyridin]-3′-yl)-1H-pyrazol-1-yl)benzonitrile] reads less than 500 nM; that for `CC(C)Oc1cc(=O)n(C)cc1-c1cnn([C@@H](C)c2ccccc2)c1` [Example 46, (S)-4-isopropoxy-1-methyl-5-(1-(1-phenylethyl)-1H-pyrazol-4-yl) pyridin-2(1H)-one], less than 500 nM; that for `Cn1cc(-c2cnn(Cc3cccc(C#N)c3)c2)ccc1=O` [Example 4, 3-((4-(1-methyl-6-oxo-1,6-dihydropyridin-3-yl)-1H-pyrazol-1-yl)methyl)benzonitrile], 500 to 5000 nM. The same measure, in the same setting: then `COc1ccc(C#N)cc1-n1cc(-c2cn(C)c(=O)cc2-c2ccc(Cl)cc2)cn1` [Example 307, 3-{4-[4-(4-Chloro-phenyl)-1-methyl-6-oxo-1,6-dihydro-pyridin-3-yl]-pyrazol-1-yl}-4-methoxy-benzonitrile], with less than 500 nM.

With `CC(c1ccccc1)n1cc(-c2cn(C)c(=O)cc2N2CCOCC2)cn1` (centres unmarked) [Example 43, 1-methyl-4-morpholino-5-(1-(1-phenylethyl)-1H-pyrazol-4-yl) pyridin-2(1H)-one], the half-maximal inhibitory concentration (IC50) on BRD4 was 500 to 5000 nM; at CBP (setting [1]) it was less than 500 nM; at CBP (setting [2]), less than 500 nM. For `CC(c1ccccc1)n1cc(-c2cc(C3CC3)c(=O)n(C)c2)cn1` (centres unmarked) [Example 197, 3-Cyclopropyl-1-methyl-5-[1-(1-phenyl-ethyl)1H-pyrazol-4-yl]-1H-pyridin-2-one], the half-maximal inhibitory concentration (IC50) on CBP (setting [1]) was more than 5000 nM. In the case of `CC(c1ccccc1)n1cc(-c2cn(C)c(=O)cc2N2CCCC2)cn1` (centres unmarked) [Example 41, 1-methyl-5-(1-(1-phenylethyl)-1H-pyrazol-4-yl)-4-(pyrrolidin-1-yl) pyridin-2(1H)-one], the results for the IC50 at BRD4, on CBP (setting [1]) and on CBP (setting [2]) were 500 to 5000 nM, less than 500 nM and less than 500 nM, respectively. As to `Cn1cc(-c2cnn(-c3cccc(F)c3C#N)c2)c(-c2ccc(OC3CC3)nc2)cc1=O` [Example 362, 2-[4-[4-[6-(cyclopropoxy)-3-pyridyl]-1-methyl-6-oxo-3-pyridyl)pyrazol-1-yl]-6-fluoro-benzonitrile], the IC50 at CBP (setting [1]) was less than 500 nM.

Turning to `CCOc1cc(=O)n(C)cc1-c1cnn(Cc2ccccc2C(=O)OC)c1` [Example 70, methyl 2-((4-(4-ethoxy-1-methyl-6-oxo-1,6-dihydropyridin-3-yl)-1H-pyrazol-1-yl)methyl)benzoate], on CBP (setting [1]), the IC50 was less than 500 nM. The same measure, in the same setting: then `COc1ccc(C(=O)O)c(-n2cc(-c3cn(C)c(=O)cc3-c3ccc(OC)nc3)cn2)c1` [Example 270, 4-Methoxy-2-[4-(6-methoxy-1′-methyl-6′-oxo-1′,6′-dihydro-[3,4′]bipyridinyl-3∝-yl)-pyrazol-1-yl]-benzoic acid], with less than 500 nM. Regarding `Cn1cc(-c2cnn(-c3cccc(Cl)c3C#N)c2)c(-c2cnc(N3CCCCC3)nc2)cc1=O` [Example 338, 2-chloro-6-(4-(1-methyl-6-oxo-4-(2-(piperidin-1-yl)pyrimidin-5-yl)-1,6-dihydropyridin-3-yl)-1H-pyrazol-1-yl)benzonitrile], at CBP (setting [1]), the IC50 is less than 500 nM. On the same count and under the same terms, the result for `COc1ccc(-c2cc(=O)n(C)cc2-c2cnn(-c3ccccc3C(=O)O)c2)cn1` [Example 228, 2-[4-(6-Methoxy-1′-methyl-6′-oxo-1′,6′-dihydro-[3,4′]bipyridinyl-3′-yl)-pyrazol-1-yl]-benzoic acid] reads less than 500 nM.

Consider `Cc1cc(-c2cnn(-c3ccccc3C(=O)O)c2)cn(C)c1=O` [Example 255, 2-[4-(1,5-Dimethyl-6-oxo-1,6-dihydro-pyridin-3-yl)-pyrazol-1-yl]-benzoic acid], for which the IC50 on CBP (setting [1]) is less than 500 nM. The same measure, in the same setting: the result for `CC(C)Oc1cc(=O)n(C)cc1-c1cnn(-c2ccccc2C#N)c1` [Example 202, 2-[4-(4-Isopropoxy-1-methyl-6-oxo-1,6-dihydro-pyridin-3-yl)-pyrazol-1-yl]-benzonitrile] reads less than 500 nM.

The record behind these values is patent US10617680B2 (CELGENE QUANTICEL RESEARCH, INC., priority 2017, dated 2020).
